The Deep4Chem optical property database
Each block holds one molecule with its values, some of them ahead of it.

Assay: photoluminescence quantum yield (fraction); solvent given as SMILES

photoluminescence quantum yield (in CC#N): 0.16
SMILES: C[C@]12SC(=O)C=C1c1nc(-c3ccc(O)cc3)[nH]c1C1=CC(=O)S[C@@]12C

photoluminescence quantum yield (in CC#N): 0.08
photoluminescence quantum yield (in ClCCl): 0.82
SMILES: COC(=O)c1cc(=O)n(C)c2cc(-c3ccc(N(C)C)cc3)sc12

photoluminescence quantum yield (in CCO): 0.37
photoluminescence quantum yield (in ClCCl): 0.13
photoluminescence quantum yield (in O): 0.42
SMILES: CC[N+]1=C(/C=C/c2c(C)nn3c(-c4ccc(OC)cc4)ccnc23)C(C)(C)c2ccccc21

photoluminescence quantum yield (in ClCCl): 0.01
SMILES: CN(C)c1ccc(C2=C3C=C(c4ccc(C=C(C#N)C#N)cc4)S[C@]34c3ccccc3[C@H]2c2ccccc24)cc1

photoluminescence quantum yield (in CC#N): 0.11
SMILES: Cc1ccc(-c2sc(/C(C#N)=C/c3ccc(C#N)cc3)nc2-c2ccc(Cl)cc2)cc1

photoluminescence quantum yield (in ClCCl): 0.46
SMILES: CN(C)c1ccc(C2=CC3=C(c4ccc(C=O)cc4)[C@H]4c5ccccc5[C@]3(S2)c2ccccc24)cc1

photoluminescence quantum yield (in CC#N): 0.24
SMILES: Fc1ccc(/C=C/c2nc3c4ccccc4c4ccccc4c3o2)cc1

photoluminescence quantum yield (in ClCCl): 0.25
SMILES: C(=C\c1ncnc2ccccc12)/c1ccc(N(c2ccccc2)c2ccccc2)cc1

photoluminescence quantum yield (in C1CCOC1): 0.29
SMILES: COc1ccccc1C1=[N+]2C(=Cc3c4cc5ccccc5cc4c(-c4ccccc4OC)n3[B-]2(F)F)c2cc3ccccc3cc21

photoluminescence quantum yield (in ClC(Cl)Cl): 0.1
SMILES: Cc1ccc(N(c2ccc(C)cc2)c2ccc(-c3ccc(C=C(C#N)C#N)o3)cc2)cc1

photoluminescence quantum yield (in ClCCl): 0.57
SMILES: Cc1cc(C)c(C2=C3C=C(/C=C/C(=O)OC(C)(C)C)C=[N+]3[B-](F)(F)n3c2ccc3N2CCCC2)c(C)c1

photoluminescence quantum yield (in C1CCOC1): 0.57
photoluminescence quantum yield (in ClCCl): 0.88
SMILES: F[B-]1(F)n2c(c3ccccc3c2-c2ccccc2)C=C2c3ccccc3C(c3ccccc3)=[N+]21

photoluminescence quantum yield (in CC#N): 0.078
SMILES: Oc1ccc2ccccc2c1/C=N/C1CCCCC1/N=C/c1c(O)ccc2ccccc12 (configuration not stated)

photoluminescence quantum yield (in CC#N): 0.21
SMILES: CCN(CC)c1ccc(/C=N/c2cc3nc4ccccc4nc3cc2/N=C/c2ccc(N(CC)CC)cc2O)c(O)c1

photoluminescence quantum yield (in O): 0.041
SMILES: CC(=O)c1ccn2c3c(c(/C=C/c4cc[n+](C)cc4)c2c1)CN(C)C3=O

photoluminescence quantum yield (in ClCCl): 0.8
SMILES: CN(C)c1ccc(-c2nc(-c3ccc(N(C)C)cc3)c3ccccc3n2)cc1

photoluminescence quantum yield (in O): 0.54
SMILES: CC[n+]1nc2cc3c(cc2c2cc(C)ccc21)N(C)CCC3

photoluminescence quantum yield (in ClCCl): 0.11
SMILES: COc1ccc(/C=C/c2cc(/C=C/c3ccc(OC)cc3)nc(/C=C/c3ccc4cc(OC)ccc4c3)n2)cc1

photoluminescence quantum yield (in C1CCOC1): 0.49
SMILES: CCC1(CC)c2ccccc2-c2c1c1c(c3c2C(CC)(CC)c2cc(N(c4ccccc4)c4ccccc4)ccc2-3)C(CC)(CC)c2ccccc2-1

photoluminescence quantum yield (in ClCCl): 0.96
SMILES: O=c1c2ccccc2nc2ccccn12

photoluminescence quantum yield (in ClCCl): 0.24
SMILES: FC(F)(F)c1ccc(C#Cc2ncc(-c3ccccc3)o2)cc1

photoluminescence quantum yield (in ClCCl): 0.2
SMILES: [O-][n+]1c(-c2ccccc2)cc(N2CCOCC2)nc1/C=C/c1ccccc1

photoluminescence quantum yield (in ClC(Cl)Cl): 0.55
SMILES: CN1CCCc2cc(C3=Cc4cccc[n+]4[B-](F)(F)O3)ccc21

photoluminescence quantum yield (in CS(C)=O): 0.88
SMILES: Cc1cccc2cc(-c3cc4cccc(C)c4oc3=O)oc12

photoluminescence quantum yield (in CCO): 0.49
photoluminescence quantum yield (in O): 0.36
SMILES: CC/[NH+]=c1\cc2oc3cc(NCCO)c4ccccc4c3nc-2cc1C

photoluminescence quantum yield (in CCO): 0.89
photoluminescence quantum yield (in ClCCl): 0.83
SMILES: COCc1ncc(-c2c3ccccc3c(-c3cnc(COC)nc3)c3ccccc23)cn1

photoluminescence quantum yield (in ClCCl): 0.127
SMILES: c1ccc(-c2nc(-c3ccc(N(c4ccccc4)c4ccccc4)cc3)n3ccccc23)cc1

photoluminescence quantum yield (in CO): 0.41
SMILES: c1ccc(N(c2ccccc2)c2ccc(-c3cnc(-c4ccc(N(c5ccccc5)c5ccccc5)cc4)s3)cc2)cc1

photoluminescence quantum yield (in ClCCl): 0.87
SMILES: COc1ccccc1C1=[N+]2C(=C(c3ccccc3)c3c4c(c(-c5ccccc5OC)n3[B-]2(F)F)C2C=CC4CC2)C2=C1C1C=CC2CC1 (configuration not stated)

Continued, molecule first:

SMILES: CCCCCCCCOc1ccc2c3cccc4c(OCCCCCCCC)ccc(c5cccc1c52)c43
photoluminescence quantum yield (in C1CCOC1): 0.94
photoluminescence quantum yield (in Cc1ccccc1): 0.9
photoluminescence quantum yield (in ClC(Cl)(Cl)Cl): 0.08
photoluminescence quantum yield (in ClC(Cl)Cl): 0.69
photoluminescence quantum yield (in ClCCl): 0.81
photoluminescence quantum yield (in c1ccncc1): 0.9

SMILES: N#Cc1ccc(/C=C/c2ccc3ccc4cccc5ccc2c3c45)cc1
photoluminescence quantum yield (in CC1CCCCC1): 0.8
photoluminescence quantum yield (in CC#N): 0.26
photoluminescence quantum yield (in CO): 0.26
photoluminescence quantum yield (in Cc1ccccc1): 0.79
photoluminescence quantum yield (in ClC(Cl)Cl): 0.3

SMILES: OB(O)c1ccc(-c2ccc(N(c3ccccc3)c3ccccc3)cc2)cc1
photoluminescence quantum yield (in C1CCCCC1): 0.72
photoluminescence quantum yield (in C1CCOC1): 0.65
photoluminescence quantum yield (in CC#N): 0.68
photoluminescence quantum yield (in CCO): 0.81
photoluminescence quantum yield (in CCOC(C)=O): 0.66
photoluminescence quantum yield (in CCOCC): 0.65
photoluminescence quantum yield (in CO): 0.62

SMILES: Nc1cc2nc3cc(Cl)c(Cl)cc3nc2cc1N
photoluminescence quantum yield (in CCO): 0.1

SMILES: CCCCCCc1cc2/c(=C(\C#N)C(=O)OC)s/c(=c3/s/c(=C(/C#N)C(=O)OC)c4cc(CCCCCC)sc34)c2s1
photoluminescence quantum yield (in Cc1ccccc1): 0.086

SMILES: COC(=O)CCC(NC(=O)CCNc1cccc2ccccc12)C(=O)OC (configuration not stated)
photoluminescence quantum yield (in CCO): 0.57

SMILES: COC(=O)c1ccc2c3ccc(C(=O)OC)c4c(C(=O)OC)ccc(c5ccc(C(=O)OC)c1c25)c43
photoluminescence quantum yield (in C1COCCO1): 0.99
photoluminescence quantum yield (in CC#N): 0.97
photoluminescence quantum yield (in CC(C)=O): 0.99
photoluminescence quantum yield (in CC(C)O): 0.96
photoluminescence quantum yield (in CCCCO): 0.96
photoluminescence quantum yield (in CN(C)C=O): 0.95
photoluminescence quantum yield (in CO): 0.99
photoluminescence quantum yield (in ClC(Cl)Cl): 0.83

SMILES: Brc1ccc(-c2nc(-c3ccc(C#Cc4ccc(-n5c6ccccc6c6ccccc65)cc4)cc3)nc(-c3ccc(C#Cc4ccc(-n5c6ccccc6c6ccccc65)cc4)cc3)n2)cc1
photoluminescence quantum yield (in C1CCOC1): 0.68
photoluminescence quantum yield (in CC#N): 0.02
photoluminescence quantum yield (in CCCCCC): 0.9
photoluminescence quantum yield (in Cc1ccccc1): 0.96
photoluminescence quantum yield (in ClCCl): 0.65

SMILES: COc1ccc(-c2csc(/C(C#N)=C/c3ccncc3)n2)cc1
photoluminescence quantum yield (in CC#N): 0.04
photoluminescence quantum yield (in CCO): 0.002
photoluminescence quantum yield (in CN(C)C=O): 0.016
photoluminescence quantum yield (in CS(C)=O): 0.038
photoluminescence quantum yield (in Cc1ccccc1): 0.285
photoluminescence quantum yield (in ClCCl): 0.129

SMILES: N#Cc1c(-n2c3ccccc3c3ccccc32)cccc1-n1c2ccccc2c2ccccc21
photoluminescence quantum yield (in Cc1ccccc1): 0.13
photoluminescence quantum yield (in O=P(c1ccccc1)(c1ccccc1)c1ccccc1Oc1ccccc1P(=O)(c1ccccc1)c1ccccc1): 0.28

SMILES: COc1cc(OC)cc(C2=C(c3cc(OC)c(OC)c(OC)c3)C3=Nc4c(-c5cc(OC)c(OC)c(OC)c5)c(-c5cc(OC)cc(OC)c5)c(-c5ccc(C(C)(C)C)cc5)n4[B-](F)(F)[N+]3=C2c2ccc(C(C)(C)C)cc2)c1
photoluminescence quantum yield (in Cc1ccccc1): 0.01

SMILES: c1ccc([B-]2(c3ccccc3)Oc3ccc4ccccc4c3-c3c4ccccc4nc[n+]32)cc1
photoluminescence quantum yield (in Cc1ccccc1): 0.25

SMILES: COc1cc(OC)c(C2=C3C(C)=CC(C)=[N+]3[B-](F)(F)n3c(C)cc(C)c32)c(OC)c1
photoluminescence quantum yield (in C1CCOC1): 0.78
photoluminescence quantum yield (in CC#N): 0.55
photoluminescence quantum yield (in CC(=O)C(C)(C)C): 0.69
photoluminescence quantum yield (in CC(C)=O): 0.8
photoluminescence quantum yield (in CCCCCC): 0.95
photoluminescence quantum yield (in CCOC(C)=O): 0.64
photoluminescence quantum yield (in CO): 0.68

SMILES: COC(=O)CC1(C(=O)OC)Oc2c(c(C(C)=O)c3c(c2C(C)=O)OCO3)O1
photoluminescence quantum yield (in CC#N): 0.62

SMILES: C(=C\c1ccc(-c2ccc(/C=C/c3ccc(-n4c5ccccc5c5ccccc54)cc3)s2)s1)/c1ccc(-n2c3ccccc3c3ccccc32)cc1
photoluminescence quantum yield (in C1CCOC1): 0.1
photoluminescence quantum yield (in CC#N): 0.09
photoluminescence quantum yield (in CC(C)=O): 0.09
photoluminescence quantum yield (in CN(C)C=O): 0.11
photoluminescence quantum yield (in Cc1ccccc1): 0.11

SMILES: CCCCN1C(=O)C(=C/C=C/C=C2N(CCCC)c3ccccc3N2CCCC)C(=O)N(CCCC)C1=S
photoluminescence quantum yield (in CCCCCC): 0.115
photoluminescence quantum yield (in CCO): 0.013
photoluminescence quantum yield (in CN(C)C=O): 0.023
photoluminescence quantum yield (in Cc1ccccc1): 0.168
photoluminescence quantum yield (in ClC(Cl)Cl): 0.046
photoluminescence quantum yield (in ClCCl): 0.032

SMILES: Cc1cc(-c2nc(-c3ccccc3)nc(-c3ccccc3)n2)ccc1-c1ccc2c(c1)C1(c3ccccc3-c3ccccc31)c1ccccc1N2c1ccccc1
photoluminescence quantum yield (in c1cc(-c2cccc(-n3c4ccccc4c4ccccc43)c2)cc(-n2c3ccccc3c3ccccc32)c1): 1

SMILES: CC(C)[Si](C#Cc1c2nsnc2c(C#C[Si](C(C)C)(C(C)C)C(C)C)c2nc3c(nc12)C1c2ccccc2C3c2ccccc21)(C(C)C)C(C)C
photoluminescence quantum yield (in CCCCCC): 0.66

SMILES: O=C(c1ccc(N(c2ccccc2)c2ccccc2)cc1)[C@H]1[C@H](c2ccccc2)C[C@](O)(c2ccccn2)C[C@]1(O)c1ccccn1
photoluminescence quantum yield (in C1CCOC1): 0.48
photoluminescence quantum yield (in CC#N): 0.02
photoluminescence quantum yield (in CCO): 0.01
photoluminescence quantum yield (in CCOC(C)=O): 0.4
photoluminescence quantum yield (in CN(C)C=O): 0.03
photoluminescence quantum yield (in ClCCl): 0.25
photoluminescence quantum yield (in c1ccccc1): 0.93

SMILES: CCCCN1C(=O)c2cccc3c(N(C)C)ccc(c23)C1=O
photoluminescence quantum yield (in Cc1ccccc1): 0.95

SMILES: F[B-]1(F)n2c(ccc2-c2cccs2)C(C(F)(F)F)=C2C=CC(c3cccs3)=[N+]21
photoluminescence quantum yield (in CCCCCC): 1

SMILES: CN(C)c1cc(C#N)c(N(C)C)c(C#N)c1
photoluminescence quantum yield (in C1CCCCC1): 0.37
photoluminescence quantum yield (in C1CCOC1): 0.54
photoluminescence quantum yield (in C1COCCO1): 0.55
photoluminescence quantum yield (in CC1COC(=O)O1): 0.58
photoluminescence quantum yield (in CC#N): 0.53
photoluminescence quantum yield (in CC(C)=O): 0.51
photoluminescence quantum yield (in CC(C)OC(C)C): 0.39
photoluminescence quantum yield (in CCC#N): 0.47
photoluminescence quantum yield (in CCC(C)C): 0.37
photoluminescence quantum yield (in CCCCCC): 0.38
photoluminescence quantum yield (in CCCCCCCCO): 0.58
photoluminescence quantum yield (in CCCCCOCCCCC): 0.46
photoluminescence quantum yield (in CCCCOC(C)=O): 0.52
photoluminescence quantum yield (in CCCCOCCCC): 0.45
photoluminescence quantum yield (in CCCOCCC): 0.55
photoluminescence quantum yield (in CCO): 0.51
photoluminescence quantum yield (in CCOC(C)=O): 0.49
photoluminescence quantum yield (in CCOCC): 0.46
photoluminescence quantum yield (in CN(C)C=O): 0.57
photoluminescence quantum yield (in CO): 0.52
photoluminescence quantum yield (in CS(C)=O): 0.55
photoluminescence quantum yield (in Cc1ccccc1): 0.55
photoluminescence quantum yield (in ClCCCl): 0.52
photoluminescence quantum yield (in ClCCl): 0.57
photoluminescence quantum yield (in N#Cc1ccccc1): 0.5
photoluminescence quantum yield (in O): 0.47
photoluminescence quantum yield (in OCC(O)CO): 0.54
photoluminescence quantum yield (in c1ccccc1): 0.57
